Experimental data from ChEMBL document CHEMBL1201862, “PubChem BioAssay data set” (2004).
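Protocol summary: plate cells (96-well), add compound at 5 concentrations, incubate 48 h, interpolate endpoints linearly. Abbreviation: GI50, concentration required for 50% inhibition of growth.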 The source made the active and inactive calls. Rule as the data show it: active = GI50 up to about 1.1 µM and inactive = higher.

Tests used:
Test in all cases: DTP human tumour cell line panel, 48 h
[1] = system: DMS-114
[2] = system: DLD-1
[3] = system: DMS-273
[4] = system: M19-MEL
[5] = system: LXFL 529
[6] = system: RXF 631
[7] = system: XF498
[8] = system: KM-20L2
[9] = system: HOP-18

SMILES	GI50 [1]	GI50 [2]	GI50 [3]	GI50 [4]	GI50 [5]	GI50 [6]	GI50 [7]	GI50 [8]	GI50 [9]
COc1ccc(OC)c(/C=N/N=C(\N)NO)c1	14.9 µM (inactive)	17.2 µM (inactive)	6.31 µM (inactive)	61 µM (inactive)	4.57 µM (inactive)	37.6 µM (inactive)	18 µM (inactive)		
c1ccc(C(c2ccccc2)c2ccncc2)cc1	> 100 µM (inactive)	> 100 µM (inactive)	> 100 µM (inactive)	> 100 µM (inactive)		> 100 µM (inactive)	> 100 µM (inactive)	> 100 µM (inactive)	> 100 µM (inactive)
C[S+]([O-])c1cc(=O)c2ccccc2s1 (stereo not given)	4.2 µM (inactive)	2.14 µM (inactive)	8.67 µM (inactive)	6.03 µM (inactive)	1.54 µM (inactive)		4.1 µM (inactive)	6.25 µM (inactive)	10.3 µM (inactive)
Cc1cc(C)nc(NS(=O)(=O)c2ccc(Nc3c4ccccc4nc4c(C(=O)Nc5ccc(S(N)(=O)=O)cc5)cccc34)cc2)n1	> 100 µM (inactive)	71.8 µM (inactive)	92.5 µM (inactive)	94.2 µM (inactive)	88.9 µM (inactive)		> 100 µM (inactive)	> 100 µM (inactive)	51.6 µM (inactive)
CC(C)(C)c1ccc(OCCOCCOc2ccc(C(C)(C)C)cc2S(=O)(=O)Nc2ccc([N+](=O)[O-])cc2)c(S(=O)(=O)Nc2ccc([N+](=O)[O-])cc2)c1	9.42 µM (inactive)	38.6 µM (inactive)	7.94 µM (inactive)	6.11 µM (inactive)		6.82 µM (inactive)			9.75 µM (inactive)
CC(=O)OC1CCC2C(=CCC3C2(C)C(=O)CC2(C)C(C4(C)OC(C(C)C)=CC4=O)C(O)CC32C)C1(C)C (stereo not given)	25.8 µM (inactive)	32.5 µM (inactive)	23.3 µM (inactive)	12.6 µM (inactive)	31.3 µM (inactive)		31.3 µM (inactive)	17.9 µM (inactive)	
CC(O)C(NC(=O)c1ccccc1)C(=O)N(Cc1ccccc1)Cc1ccccc1 (stereo not given)	> 100 µM (inactive)	> 100 µM (inactive)	> 100 µM (inactive)	> 100 µM (inactive)	> 100 µM (inactive)	> 100 µM (inactive)	> 100 µM (inactive)	> 100 µM (inactive)	37 µM (inactive)
CC(=O)OC12C(C)=C(C)C(=O)N1c1ccccc1N2C(C)=O (stereo not given)			> 100 µM (inactive)	> 100 µM (inactive)	> 100 µM (inactive)		> 100 µM (inactive)	> 100 µM (inactive)	> 100 µM (inactive)
O=C1c2cccc3cc([N+](=O)[O-])cc(c23)C(=O)N1CCNCCNCCNCCN1C(=O)c2cccc3cc([N+](=O)[O-])cc(c23)C1=O		< 0.001 µM (active)	< 0.001 µM (active)		0.01 µM (active)			0.01 µM (active)	0.149 µM (active)
O=C(Nc1ccccc1[N+](=O)[O-])C(=O)C(C(=O)c1ccccc1-c1ccccc1)C1OC(=O)c2ccccc21 (stereo not given)	13.6 µM (inactive)	21.4 µM (inactive)	14.3 µM (inactive)	12.6 µM (inactive)	11 µM (inactive)	13.4 µM (inactive)		18.2 µM (inactive)	14.1 µM (inactive)
Cc1ccc(Sc2ccccc2N)cc1	43.4 µM (inactive)		30.8 µM (inactive)	41.6 µM (inactive)	16.8 µM (inactive)	29 µM (inactive)		39.9 µM (inactive)	77.8 µM (inactive)
Oc1cc2c(cc1O)-c1[nH]ncc1CC2	16.5 µM (inactive)	52.5 µM (inactive)	42.1 µM (inactive)	40.7 µM (inactive)	31.3 µM (inactive)		27.6 µM (inactive)	38.5 µM (inactive)	6.15 µM (inactive)
O=C(Nc1nc2ncn(CCI)c2c(=O)[nH]1)c1ccccc1			> 100 µM (inactive)	> 100 µM (inactive)	> 100 µM (inactive)	> 100 µM (inactive)	20.4 µM (inactive)	> 100 µM (inactive)	> 56.1 µM (inactive)
Cc1cc2occ(-c3ccc(Cl)cc3)c2c(=O)o1	> 100 µM (inactive)	76 µM (inactive)	> 100 µM (inactive)		> 100 µM (inactive)	> 100 µM (inactive)		> 100 µM (inactive)	> 100 µM (inactive)
CC(Oc1ccc(OCC2CCCCC2)cc1)C(=O)O (stereo not given)	> 100 µM (inactive)	> 100 µM (inactive)	> 100 µM (inactive)	> 100 µM (inactive)	> 100 µM (inactive)		> 100 µM (inactive)		> 100 µM (inactive)
CCc1cccc(C(C)C)c1NC(=O)CCl		> 100 µM (inactive)	> 100 µM (inactive)	58.3 µM (inactive)	> 100 µM (inactive)	19.7 µM (inactive)	> 100 µM (inactive)	> 100 µM (inactive)	
Cc1c(-c2coc(-c3ccc(Cl)cc3)n2)c(=O)n(-c2ccccc2)n1C		> 100 µM (inactive)	> 100 µM (inactive)	> 100 µM (inactive)	> 100 µM (inactive)		19.1 µM (inactive)	> 100 µM (inactive)	
C[C@H]1C=C2C(=O)O[C@H]3CC[C@@H](C1)[C@@]23O	2.62 µM (inactive)	2.7 µM (inactive)		3.76 µM (inactive)	2.93 µM (inactive)			4.91 µM (inactive)	3.18 µM (inactive)
N#CC(C(=O)C(=O)Nc1c(Cl)cccc1Cl)c1ccccc1 (stereo not given)	> 10 µM (inactive)	> 10 µM (inactive)	> 10 µM (inactive)	> 10 µM (inactive)	> 10 µM (inactive)	> 10 µM (inactive)	> 100 µM (inactive)	> 10 µM (inactive)	> 10 µM (inactive)
CCCCc1c2c(nc3c1CCc1cc(C=O)c(N)nc1-3)/C(=C/c1ccccc1)CCC2	> 100 µM (inactive)		> 100 µM (inactive)	> 100 µM (inactive)	> 100 µM (inactive)		44.4 µM (inactive)	> 100 µM (inactive)	> 100 µM (inactive)
COc1cc2c(c(O)c1C)C(=O)C(Cl)=CC2=O	16.6 µM (inactive)	17.4 µM (inactive)	19.2 µM (inactive)	7.98 µM (inactive)	7.43 µM (inactive)	12.1 µM (inactive)	20 µM (inactive)	23.1 µM (inactive)	16.5 µM (inactive)
COc1ccccc1/C=C(\NC(=O)c1ccccc1)c1nc2ccccc2[nH]1	29.4 µM (inactive)	37.3 µM (inactive)		38.3 µM (inactive)	29.9 µM (inactive)	> 100 µM (inactive)	36.1 µM (inactive)	59.8 µM (inactive)	46.3 µM (inactive)
CCN(CCCl)CCCNc1c2ccccc2nc2ccc(OC)cc12	0.314 µM (active)	0.084 µM (active)	0.059 µM (active)	0.216 µM (active)	0.0912 µM (active)		0.116 µM (active)	0.181 µM (active)	
COc1cc(/C=C/c2ccncc2)cc(OC)c1OC	> 100 µM (inactive)	> 100 µM (inactive)	96.6 µM (inactive)		55 µM (inactive)	31.6 µM (inactive)	22.4 µM (inactive)	65.5 µM (inactive)	70.8 µM (inactive)
